From PMC8474119, “Discovery and SAR Evolution of Pyrazole Azabicyclo[3.2.1]octane Sulfonamides as a Novel Class of Non-Covalent N-Acylethanolamine-Hydrolyzing Acid Amidase (NAAA) Inhibitors for Oral Administration” (Journal of Medicinal Chemistry, 2021)

What was measured:
[1] = molecular target: T1, human acid ceramidase (AC) (Homo sapiens, UniProt Q13510); assay: Fluorogenic human-AC assay; format: biochemical
T1 construct: made in house; host or cells: HEK-293 cells stably overexpressing human AC; enzyme-enriched lysate
T1 sequence (Q13510 143-395 limits assumed): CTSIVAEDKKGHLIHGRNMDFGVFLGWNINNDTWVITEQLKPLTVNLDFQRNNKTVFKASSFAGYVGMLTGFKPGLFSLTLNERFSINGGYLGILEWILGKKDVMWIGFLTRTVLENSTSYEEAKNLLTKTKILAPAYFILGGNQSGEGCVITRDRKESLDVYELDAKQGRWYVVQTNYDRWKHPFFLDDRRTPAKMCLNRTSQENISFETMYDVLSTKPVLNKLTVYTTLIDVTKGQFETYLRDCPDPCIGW
T1 sequence (Q13510 22-142 limits assumed): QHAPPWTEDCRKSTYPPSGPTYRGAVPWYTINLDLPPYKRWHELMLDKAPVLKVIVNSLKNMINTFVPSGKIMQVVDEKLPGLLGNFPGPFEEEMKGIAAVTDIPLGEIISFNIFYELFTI
Procedure: (§1) Human recombinant proteins were obtained from HEK-293 stable overexpressing human NAAA, AC, and FAAH-1 cell lines, respectively. Cells were grown in Dulbecco’s modified Eagle medium (DMEM) containing 10% FBS, 1% glutamine, 1 mM sodium pyruvate, and 500 μg/mL geneticin (G418). To obtain a high-density cell proliferation, h-NAAA-HEK-293 cells were grown in BelloCell-500 bottle, a compact bioreactor. On the contrary, h-AC and h-FAAH-1-HEK-293 cells were grown in 150 mm dishes and scraped off with cold PBS 1× pH 7.4 at 80% confluence. Cell pellets were collected and stored at −80 °C until protein preparation.
HEK-293 cells stably transfected with the human NAAA or human AC coding sequences were used as the enzyme source. […] The suspension was finally centrifuged at 105,000g for 1 h at 4 °C, supernatants were collected, protein concentration was measured, and samples were aliquoted and stored at −80 °C until use.
The assay was performed in Optiplate 96-wells black plates (PerkinElmer, Massachusetts, USA) in a total reaction volume of 250 μL. h-AC protein (2 μg) was preincubated for 10 min with various concentrations of test compounds or vehicle control (DMSO 5%) in 25 mM sodium acetate buffer (pH 4.5). […] Fluorescence was measured with the EnVision 2014 Multilabel Reader (PerkinElmer, Massachusetts, USA) at an excitation/emission wavelength of 355/460 nm. […]

human FAAH = molecular target: T2, human FAAH (Homo sapiens, UniProt O00519); assay: Fluorogenic human-FAAH-1 assay; format: biochemical
T2 construct: made in house; host or cells: HEK-293 cells stably overexpressing human FAAH-1; membrane-enriched lysate
T2 sequence (O00519 1-579): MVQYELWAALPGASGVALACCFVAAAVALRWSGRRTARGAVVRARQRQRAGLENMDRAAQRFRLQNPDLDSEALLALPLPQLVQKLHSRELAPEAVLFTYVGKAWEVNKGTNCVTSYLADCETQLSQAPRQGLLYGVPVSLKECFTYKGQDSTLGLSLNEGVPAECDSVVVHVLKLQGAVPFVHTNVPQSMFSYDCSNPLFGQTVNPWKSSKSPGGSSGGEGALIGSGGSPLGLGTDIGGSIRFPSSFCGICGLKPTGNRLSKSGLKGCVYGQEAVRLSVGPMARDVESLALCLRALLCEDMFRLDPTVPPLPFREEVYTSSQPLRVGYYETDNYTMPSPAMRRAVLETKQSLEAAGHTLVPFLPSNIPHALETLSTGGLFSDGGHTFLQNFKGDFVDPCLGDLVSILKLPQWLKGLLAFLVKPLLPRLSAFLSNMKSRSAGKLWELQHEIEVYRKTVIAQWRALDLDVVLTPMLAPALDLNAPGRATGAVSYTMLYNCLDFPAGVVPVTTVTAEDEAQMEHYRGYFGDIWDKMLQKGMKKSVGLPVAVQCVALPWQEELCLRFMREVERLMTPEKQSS
Procedure: as §1
Cell pellets, obtained by centrifugation at 300g for 7 min at 4 °C, were resuspended in 20 mM Tris-HCl pH 7.4, 0.32 M sucrose, disrupted by sonication (10 pulses, 5 times), and centrifuged (1000g, 10 min, 4 °C). […] Membrane pellets were resuspended in PBS to obtain h-FAAH-1 preparation; the protein concentration was measured by the Bradford Protein Assay (BioRad) and samples were aliquoted and stored at −80 °C until use.
The fluorescence assay to measure FAAH activity was performed in 96-well black plates (Black OptiPlate-96 F; PerkinElmer, Massachusetts, USA): 2.5 μg of human FAAH-1 membrane preparation was preincubated for 50 min at 37 °C, in 190 μL of assay buffer (50 mM Tris-HCl pH 7.4, 0.05% Fatty acid-free BSA) with 5 μL of inhibitor or 5 μL DMSO to measure FAAH total activity. […]

Compound: CCOCc1cnc(O[C@H]2C[C@H]3CC[C@@H](C2)N3S(=O)(=O)c2c(C)n[nH]c2C)cn1 [Compound 50, (1R,3r,5S)-8-((3,5-Dimethyl-1H-pyrazol-4-yl)sulfonyl)-3-((5-(ethoxymethyl)pyrazin-2-yl)oxy)-8-azabicyclo[3.2.1]octane]
- inhibition at 30 µM [1]: 34%
- inhibition at 30 µM (human FAAH): 25%
